Assays:
Experiment in all cases: KINOMEscan competition binding
Details in all cases: compound 10.0 µM
MAP3K5 (human) = MAP3K5 (human) (UniProt Q99683)
RPS6KA5 KD2 (human) = RPS6KA5 KD2 (human) (UniProt O75582)
CHEK1 (human) = CHEK1 (human) (UniProt O14757)
PLK1 (human) = PLK1 (human) (UniProt P53350)
ROS1 (human) = ROS1 (human) (UniProt P08922)
RET (human) = RET (human) (UniProt P07949)
PRKG2 (human) = PRKG2 (human) (UniProt Q13237)
MAPK7 (human) = MAPK7 (human) (UniProt Q13164)
CAMK2G (human) = CAMK2G (human) (UniProt Q13555)
MET (human) = MET (human) (UniProt P08581)
ULK3 (human) = ULK3 (human) (UniProt Q6PHR2)
PKMYT1 (human) = PKMYT1 (human) (UniProt Q99640)
CDK3 (human) = CDK3 (human) (UniProt Q00526)
LIMK1 (human) = LIMK1 (human) (UniProt P53667)
CAMK1G (human) = CAMK1G (human) (UniProt Q96NX5)
MKNK2 (human) = MKNK2 (human) (UniProt Q9HBH9)
HCK (human) = HCK (human) (UniProt P08631)
CIT (human) = CIT (human) (UniProt O14578)
MYLK2 (human) = MYLK2 (human) (UniProt Q9H1R3)
GSK3A (human) = GSK3A (human) (UniProt P49840)
LATS2 (human) = LATS2 (human) (UniProt Q9NRM7)
PKN2 (human) = PKN2 (human) (UniProt Q16513)
PDGFRA (human) = PDGFRA (human) (UniProt P16234)
FLT4 (human) = FLT4 (human) (UniProt P35916)
STK32B (human) = STK32B (human) (UniProt Q9NY57)
CSNK1D (human) = CSNK1D (human) (UniProt P48730)
EPHB3 (human) = EPHB3 (human) (UniProt P54753)
PLK3 (human) = PLK3 (human) (UniProt Q9H4B4)
MYLK (human) = MYLK (human) (UniProt Q15746)
LYN (human) = LYN (human) (UniProt P07948)

Chain of CDK3 (human) (Q00526 whole entry, looked up): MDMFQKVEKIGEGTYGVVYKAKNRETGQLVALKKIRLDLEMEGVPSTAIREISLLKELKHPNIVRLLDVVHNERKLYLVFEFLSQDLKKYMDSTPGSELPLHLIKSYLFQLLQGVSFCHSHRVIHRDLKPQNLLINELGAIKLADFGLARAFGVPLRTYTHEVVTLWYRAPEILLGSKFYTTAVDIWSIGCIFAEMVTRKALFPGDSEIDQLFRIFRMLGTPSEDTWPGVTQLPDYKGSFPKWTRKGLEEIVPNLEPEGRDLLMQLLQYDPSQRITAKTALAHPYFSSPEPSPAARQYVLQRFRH
Chain of STK32B (human) (Q9NY57 whole entry, looked up): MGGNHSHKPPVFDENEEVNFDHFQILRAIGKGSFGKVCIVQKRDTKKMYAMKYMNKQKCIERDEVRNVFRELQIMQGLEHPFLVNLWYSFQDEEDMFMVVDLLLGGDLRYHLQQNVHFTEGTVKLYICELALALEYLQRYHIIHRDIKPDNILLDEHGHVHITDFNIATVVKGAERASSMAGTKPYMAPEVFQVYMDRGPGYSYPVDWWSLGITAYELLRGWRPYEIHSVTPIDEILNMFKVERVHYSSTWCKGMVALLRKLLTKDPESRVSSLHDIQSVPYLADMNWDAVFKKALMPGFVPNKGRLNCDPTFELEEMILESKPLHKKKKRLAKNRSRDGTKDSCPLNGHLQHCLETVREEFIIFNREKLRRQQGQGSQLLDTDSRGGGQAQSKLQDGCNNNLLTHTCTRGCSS
Chain of PLK1 (human) (P53350 whole entry, looked up): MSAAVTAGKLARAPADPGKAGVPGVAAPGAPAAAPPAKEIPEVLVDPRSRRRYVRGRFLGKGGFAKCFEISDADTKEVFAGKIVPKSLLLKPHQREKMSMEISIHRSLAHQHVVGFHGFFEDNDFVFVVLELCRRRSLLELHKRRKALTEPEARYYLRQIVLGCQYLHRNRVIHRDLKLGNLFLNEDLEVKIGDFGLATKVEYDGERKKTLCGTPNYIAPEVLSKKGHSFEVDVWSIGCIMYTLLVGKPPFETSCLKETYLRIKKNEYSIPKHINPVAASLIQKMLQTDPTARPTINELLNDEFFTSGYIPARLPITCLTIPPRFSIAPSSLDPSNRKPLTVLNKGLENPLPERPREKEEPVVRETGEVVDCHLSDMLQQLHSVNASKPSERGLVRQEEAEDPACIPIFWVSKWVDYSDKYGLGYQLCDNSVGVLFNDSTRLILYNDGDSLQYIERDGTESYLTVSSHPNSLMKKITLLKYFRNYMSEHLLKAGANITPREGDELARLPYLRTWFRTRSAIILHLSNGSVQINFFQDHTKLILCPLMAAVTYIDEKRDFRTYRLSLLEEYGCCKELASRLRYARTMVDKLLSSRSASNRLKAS
Chain of HCK (human) (P08631 whole entry, looked up): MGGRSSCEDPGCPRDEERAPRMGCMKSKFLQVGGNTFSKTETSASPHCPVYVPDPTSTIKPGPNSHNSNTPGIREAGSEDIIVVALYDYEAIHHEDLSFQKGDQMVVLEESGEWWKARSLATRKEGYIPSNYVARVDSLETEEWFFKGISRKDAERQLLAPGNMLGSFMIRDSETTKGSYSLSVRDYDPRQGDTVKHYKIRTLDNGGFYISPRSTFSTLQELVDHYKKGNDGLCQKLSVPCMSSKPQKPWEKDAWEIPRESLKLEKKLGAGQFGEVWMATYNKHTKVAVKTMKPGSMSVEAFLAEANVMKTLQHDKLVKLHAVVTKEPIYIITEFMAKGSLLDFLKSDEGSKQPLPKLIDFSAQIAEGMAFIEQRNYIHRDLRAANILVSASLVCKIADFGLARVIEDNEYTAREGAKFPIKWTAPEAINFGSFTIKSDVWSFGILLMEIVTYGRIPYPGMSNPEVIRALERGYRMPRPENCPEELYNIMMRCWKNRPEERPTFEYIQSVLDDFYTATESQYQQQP
Chain of CHEK1 (human) (O14757 whole entry, looked up): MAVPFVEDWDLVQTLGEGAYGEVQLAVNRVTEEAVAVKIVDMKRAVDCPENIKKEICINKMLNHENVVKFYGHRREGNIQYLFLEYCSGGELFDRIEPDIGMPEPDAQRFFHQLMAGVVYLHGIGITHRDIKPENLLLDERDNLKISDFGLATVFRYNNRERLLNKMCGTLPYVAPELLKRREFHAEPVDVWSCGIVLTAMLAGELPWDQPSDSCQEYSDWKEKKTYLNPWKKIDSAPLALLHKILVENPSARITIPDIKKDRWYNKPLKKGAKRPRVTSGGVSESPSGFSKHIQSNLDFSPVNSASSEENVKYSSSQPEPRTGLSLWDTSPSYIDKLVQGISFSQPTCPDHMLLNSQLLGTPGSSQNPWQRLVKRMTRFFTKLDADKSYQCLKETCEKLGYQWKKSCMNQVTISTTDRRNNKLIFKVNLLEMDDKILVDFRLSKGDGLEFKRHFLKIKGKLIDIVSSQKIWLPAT
Chain of MAP3K5 (human) (Q99683 whole entry, looked up): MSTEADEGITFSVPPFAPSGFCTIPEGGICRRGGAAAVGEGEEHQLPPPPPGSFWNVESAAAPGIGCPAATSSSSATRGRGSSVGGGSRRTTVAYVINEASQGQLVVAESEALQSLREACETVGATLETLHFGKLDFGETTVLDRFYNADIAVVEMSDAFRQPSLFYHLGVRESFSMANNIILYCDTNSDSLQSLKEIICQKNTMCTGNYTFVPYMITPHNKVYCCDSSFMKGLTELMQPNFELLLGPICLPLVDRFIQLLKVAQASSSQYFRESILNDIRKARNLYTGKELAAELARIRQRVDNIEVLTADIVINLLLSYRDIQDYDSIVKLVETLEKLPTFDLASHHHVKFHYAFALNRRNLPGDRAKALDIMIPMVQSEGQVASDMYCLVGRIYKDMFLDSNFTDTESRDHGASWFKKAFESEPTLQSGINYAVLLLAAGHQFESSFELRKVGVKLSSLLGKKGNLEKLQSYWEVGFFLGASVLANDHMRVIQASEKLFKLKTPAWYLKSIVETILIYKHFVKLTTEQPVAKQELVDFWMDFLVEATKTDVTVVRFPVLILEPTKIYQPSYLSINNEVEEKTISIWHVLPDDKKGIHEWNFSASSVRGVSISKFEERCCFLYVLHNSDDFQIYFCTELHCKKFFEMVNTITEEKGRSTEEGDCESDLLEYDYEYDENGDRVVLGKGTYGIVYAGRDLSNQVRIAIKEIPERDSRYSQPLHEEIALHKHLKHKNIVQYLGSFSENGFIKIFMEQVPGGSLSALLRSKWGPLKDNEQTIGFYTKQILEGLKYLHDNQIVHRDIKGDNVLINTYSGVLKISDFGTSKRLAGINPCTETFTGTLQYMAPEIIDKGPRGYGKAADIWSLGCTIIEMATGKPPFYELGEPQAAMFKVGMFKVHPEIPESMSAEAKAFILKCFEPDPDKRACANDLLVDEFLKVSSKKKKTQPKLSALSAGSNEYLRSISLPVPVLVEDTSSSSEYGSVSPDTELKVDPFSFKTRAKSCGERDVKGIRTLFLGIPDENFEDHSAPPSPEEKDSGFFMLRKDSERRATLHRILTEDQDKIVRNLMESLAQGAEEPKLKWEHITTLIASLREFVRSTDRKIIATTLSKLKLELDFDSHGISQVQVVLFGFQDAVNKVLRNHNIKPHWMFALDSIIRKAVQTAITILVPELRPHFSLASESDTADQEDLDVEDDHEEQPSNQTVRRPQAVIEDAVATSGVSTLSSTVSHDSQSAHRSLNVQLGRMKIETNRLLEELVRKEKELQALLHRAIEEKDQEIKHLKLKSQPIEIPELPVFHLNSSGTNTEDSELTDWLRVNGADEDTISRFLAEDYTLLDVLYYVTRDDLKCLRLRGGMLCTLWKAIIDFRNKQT
Chain of PKN2 (human) (Q16513 whole entry, looked up): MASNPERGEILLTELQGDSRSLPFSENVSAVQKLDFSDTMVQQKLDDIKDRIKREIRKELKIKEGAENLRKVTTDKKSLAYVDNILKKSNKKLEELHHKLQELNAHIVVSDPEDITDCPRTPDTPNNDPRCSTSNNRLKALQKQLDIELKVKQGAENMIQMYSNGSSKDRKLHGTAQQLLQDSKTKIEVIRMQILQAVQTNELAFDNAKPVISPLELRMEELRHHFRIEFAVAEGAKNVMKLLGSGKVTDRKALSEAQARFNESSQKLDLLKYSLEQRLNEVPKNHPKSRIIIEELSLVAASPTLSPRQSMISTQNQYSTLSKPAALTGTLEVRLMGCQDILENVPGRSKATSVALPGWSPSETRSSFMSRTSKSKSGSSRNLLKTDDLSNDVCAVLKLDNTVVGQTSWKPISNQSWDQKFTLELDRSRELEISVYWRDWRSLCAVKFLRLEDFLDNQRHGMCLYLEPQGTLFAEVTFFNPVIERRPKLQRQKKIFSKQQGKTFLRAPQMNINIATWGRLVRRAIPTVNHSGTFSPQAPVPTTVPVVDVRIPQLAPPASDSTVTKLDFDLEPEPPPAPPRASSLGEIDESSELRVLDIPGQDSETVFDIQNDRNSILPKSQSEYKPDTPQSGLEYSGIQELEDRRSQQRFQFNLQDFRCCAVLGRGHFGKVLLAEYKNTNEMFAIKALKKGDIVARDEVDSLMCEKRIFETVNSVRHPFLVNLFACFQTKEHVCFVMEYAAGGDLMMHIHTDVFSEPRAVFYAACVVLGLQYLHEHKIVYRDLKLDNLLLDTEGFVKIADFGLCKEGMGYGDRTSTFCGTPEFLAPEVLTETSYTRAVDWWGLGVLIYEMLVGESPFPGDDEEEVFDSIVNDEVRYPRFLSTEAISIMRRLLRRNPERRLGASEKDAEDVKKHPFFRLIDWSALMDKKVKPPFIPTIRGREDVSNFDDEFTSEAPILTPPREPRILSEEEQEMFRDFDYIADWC

Compound | kinase still bound, per cent of control (MAP3K5 (human)) [%] | kinase still bound, per cent of control (RPS6KA5 KD2 (human)) [%] | kinase still bound, per cent of control (CHEK1 (human)) [%] | kinase still bound, per cent of control (PLK1 (human)) [%] | kinase still bound, per cent of control (ROS1 (human)) [%] | kinase still bound, per cent of control (RET (human)) [%] | kinase still bound, per cent of control (PRKG2 (human)) [%] | kinase still bound, per cent of control (MAPK7 (human)) [%] | kinase still bound, per cent of control (CAMK2G (human)) [%] | kinase still bound, per cent of control (MET (human)) [%] | kinase still bound, per cent of control (PKMYT1 (human)) [%] | kinase still bound, per cent of control (CDK3 (human)) [%] | kinase still bound, per cent of control (LIMK1 (human)) [%] | kinase still bound, per cent of control (CAMK1G (human)) [%] | kinase still bound, per cent of control (MKNK2 (human)) [%] | kinase still bound, per cent of control (HCK (human)) [%] | kinase still bound, per cent of control (CIT (human)) [%] | kinase still bound, per cent of control (MYLK2 (human)) [%] | kinase still bound, per cent of control (GSK3A (human)) [%] | kinase still bound, per cent of control (LATS2 (human)) [%] | other results
COc1cc(C)c(Sc2cnc(NC(=O)c3ccc(CNC(C)C(C)C)cc3)s2)cc1C(=O)N1CCN(C(C)=O)CC1 (centres undefined) | 100 | 100 | 100 | 100 | 100 | 100 | 100 | 100 | 100 | 29 | 100 | 100 | 100 | 100 | 100 | 100 | 100 | 100 | 100 | 100 | kinase still bound, per cent of control (ULK3 (human)): 100%; kinase still bound, per cent of control (PKN2 (human)): 100%; kinase still bound, per cent of control (PDGFRA (human)): 100%; kinase still bound, per cent of control (FLT4 (human)): 100%; kinase still bound, per cent of control (STK32B (human)): 100%; kinase still bound, per cent of control (CSNK1D (human)): 100%; kinase still bound, per cent of control (EPHB3 (human)): 100%; kinase still bound, per cent of control (PLK3 (human)): 100%; kinase still bound, per cent of control (MYLK (human)): 100%; kinase still bound, per cent of control (LYN (human)): 100%
COc1ccc(N(C(=O)Oc2cc(C(=O)Nc3cccc(C(F)(F)F)c3)ccc2C)c2ccnc(Nc3ccc(N4CCN(C)CC4)cc3)n2)c(OC)c1 | 100 | 100 | 100 | 100 | 1.9 | 0.35 | 100 | 15 | 100 | 100 | 100 | 100 | 2.8 | 100 | 100 | 0.2 | 0.7 | 100 | 100 | 100 | kinase still bound, per cent of control (PKN2 (human)): 100%; kinase still bound, per cent of control (PDGFRA (human)): 8.6%; kinase still bound, per cent of control (FLT4 (human)): 2%; kinase still bound, per cent of control (STK32B (human)): 100%; kinase still bound, per cent of control (CSNK1D (human)): 100%; kinase still bound, per cent of control (EPHB3 (human)): 0%; kinase still bound, per cent of control (PLK3 (human)): 100%; kinase still bound, per cent of control (MYLK (human)): 100%; kinase still bound, per cent of control (LYN (human)): 0.95%

From the kinase profiling compilation of Christmann-Franck et al. (2016)
